Data set [1] relates to HPK1. In words: HPK1 immune complex in vitro kinase (IVK) assay, endogenous HPK1 from treated Jurkat cells. Type of data set: cell-based, human. The note with it: for HPK1 kinase activity (IVK) after phosphatase inhibitor: Jurkat cells, 10 min at 37° C., 100 nM calyculin A, 10 nM okadaic acid, 2 μg/ml cyclosporine A, 10 nM pervanadate; for PGE2-induced HPK1 activity: Jurkat cells pretreated with 10 μM H-89, then PGE2.

In data set [2] the target is HA-tagged murine HPK1 point mutant R168K (UniProt P70218).
Data set [3] deals with HA-tagged murine HPK1 point mutant R169K (UniProt P70218).
Data set [4] deals with HA-tagged murine HPK1 point mutant S171A (UniProt P70218).

For pervanadate, the “HPK1 kinase activity (IVK) after phosphatase inhibitor” value in data set [1] is on record as “induced a response in HPK1 catalytic activity”.
cholera toxin: in data set [1], the “HPK1 kinase activity (IVK) after PKA activator” value was “robustly induced HPK1 kinase activity”.
On to `COC[C@@H]([C@H](O)[C@H](O)C(=O)NCC[C@H](C)c1nc(/C=C/C[C@@H]2O[C@]3(C[C@@H](O)[C@@H]2C)O[C@H]([C@H](C[C@H](O)[C@H](C)[C@H](O)[C@H](C)/C=C(C)/C(C)=C/C=C/C(C)=C\C#N)OC)[C@H](OP(=O)(O)O)C3(C)C)co1)N(C)C` [calyculin A], for which the “HPK1 kinase activity (IVK) after phosphatase inhibitor” value in data set [1] was “activated HPK1 kinase activity”.
With `O=S(=O)(NCCNC/C=C/c1ccc(Br)cc1)c1cccc2cnccc12` [H-89], the results for the “PGE2-induced HPK1 activity” value in data set [1] and in data set [1] (listed as H89) were “blocked” and “blocks PGE2-induced HPK1 activation”, respectively.
Regarding `C=C1[C@@H](O)[C@@H]2O[C@]3(CC[C@H](/C=C/[C@@H](C)[C@@H]4CC(C)=C[C@@]5(O[C@H](C[C@@](C)(O)C(=O)O)CC[C@H]5O)O4)O3)CC[C@H]2O[C@@H]1[C@@H](O)C[C@H](C)[C@H]1O[C@@]2(CCCCO2)CC[C@H]1C` [okadaic acid], in data set [1], the “HPK1 kinase activity (IVK) after phosphatase inhibitor” value is “activated HPK1 kinase activity”.
In the case of “cAMP-dependent protein kinase A (PKA), endogenous in Jurkat T cells”, the “HPK1 kinase activity (IVK assay) in response to PGE2 stimulation” value is given as “Arginine to lysine mutations at either residue 168 or 169 of HPK1 reduced the responsiveness to PGE2 stimulation by approximately 90%” in data set [2], “Arginine to lysine mutations at either residue 168 or 169 of HPK1 reduced the responsiveness to PGE2 stimulation by approximately 90%” in data set [3] and “mutation of serine 171 ablated the response of HPK1 to PGE2 stimulation signals” in data set [4].

The record behind these values is patent US20070087988A1, “Hematopoietic progenitor kinase 1 for modulation of an immune response” (New York University, priority 2005, published 2007).
